For one compound, IC50 results are on record in patent EP4817688A2, “DEGRADING PKCß1 TO TREAT CANCER” (Mayo Foundation for Medical Education and Research, priority 2020, dated 2022).

Molecules are shown by their SMILES.

What all share (format): cell-based
One assay relates to MDAMB436 cells. Put plainly: crystal violet (CV) proliferation assay, MDAMB436. The note with it: Homo sapiens, MDA-MB-436, MDAMB436 (PKCβ1^low, Rb^negative) 2000 cells. The protocol: (§1) Cell proliferation rates were determined using crystal violet assays. One thousand cells per well were plated in 96 well tissue culture plates and treated the following day with a bifunctional compound or control for 7 days in replicates of 8. Cells were fixed with 25% glutaraldehyde for 10 minutes with shaking, washed 5 times with distilled water, stained with a 1% crystal violet solution (solubilized in 25% methanol) for 10 minutes, washed again 5 times and allowed to dry. De-staining was performed using […] sodium citrate in 50% ethanol followed by quantification using a 96 well spectrophotometer set at an absorbance of 550 nm.

Another assay deals with BT549 cells. In words: crystal violet (CV) proliferation assay, BT549. The note with it: Homo sapiens, BT-549, BT549 (PKCβ1^high, Rb^regative) 2000 cells. The method, then:
as §1

A further assay concerns MDAH-2774 cells. Put plainly: crystal violet (CV) proliferation assay, MDAH-2774. The note with it: Homo sapiens; MDAH-2774 (PKCβ1^high) 1000 cells/well; read-out: Approximate IC50. The method, then: as §1
(§2) Based on the potent anti-proliferative activity of ENDX-PROTACs TC-Pr-006, TC-Pr-007, TC-Pr -008, and TC-Pr -009 in TNBC cells, the efficacy of these compounds for inhibiting the growth of ovarian cancer cells was tested. This analysis utilized KURAMOCHI cells, which represent the high-grade serous subtype (the most malignant form that accounts for 70% of all ovarian cancers and associates with poor clinical outcome) and MDAH-2774 cells, which represent endometrioid ovarian cancer and accounts for 20% of all ovarian cancer. PKCβ1 was confirmed to be expressed in both ovarian cancer cell line models, with MDAH-2774 cells expressing higher amounts of PKCβ1 compared to KURAMOCHI cells (FIG. 5A). […]

Another assay relates to MDAMB231 cells. In words: crystal violet (CV) proliferation assay, MDAMB231. Conditions: Homo sapiens, MDA-MB-231, MDAMB231 (PKCβ1^high, Rb^positive) 2000 cells. The protocol: as §1
The next assay relates to KURAMOCHI cells. In words: crystal violet (CV) proliferation assay, KURAMOCHI
The note with it: KURAMOSHI (PKCβ1^low) 1000 cells/well; read-out: Approximate IC50. The protocol:
as §1, §2

Turning to `CC/C(=C(\c1ccc(O)cc1)c1ccc(OCCNC)cc1)c1ccccc1` [ENDX, endoxifen, reference compound], the concentration for half-maximal inhibition (IC50) in the assay with MDAMB436 cells is over 5 µM; with BT549 cells, over 5 µM; with MDAH-2774 cells, over 10 µM; with MDAMB231 cells it was over 5 µM; in the assay on KURAMOCHI cells, over 10 µM.
